In data set [1] the test system is Mus musculus. In words: Ex vivo anticoagulant activity in CD1 mouse plasma assessed as activated partial thromboplastin time at 100 mg/kg, po after 2 hrs. It is filed as functional.
Data set [2] relates to Mus musculus. The experiment in a line: Ex vivo anticoagulant activity in CD1 mouse plasma assessed as activated partial thromboplastin time at 100 mg/kg, po after 1 hr. Type of data set: functional.
The nature of data set [3]: 1-octanol-water partition coefficient, log P of the neutral form compound by HILIC analysis. It is filed as physicochemical.
The next data set relates to Plasma. The experiment in a line: Anticoagulant activity in human plasma assessed as concentration required to double activated […] time. Type of data set: functional.
The next data set concerns the target T1, Neutrophil elastase (Homo sapiens, UniProt P08246).
T1 sequence (P08246 whole entry): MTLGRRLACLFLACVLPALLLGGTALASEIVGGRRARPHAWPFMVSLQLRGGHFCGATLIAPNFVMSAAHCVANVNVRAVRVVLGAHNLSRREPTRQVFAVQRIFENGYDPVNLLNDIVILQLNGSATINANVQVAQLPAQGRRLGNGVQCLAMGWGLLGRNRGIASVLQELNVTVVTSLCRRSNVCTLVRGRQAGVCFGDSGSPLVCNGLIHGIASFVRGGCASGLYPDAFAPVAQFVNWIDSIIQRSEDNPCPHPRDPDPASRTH
The experiment in a line: Inhibition of human neutrophil leukocyte elastase using N-(methoxysuccinyl)-Ala-Ala-Pro-Val-p-NA as substrate by chromogenic assay.

Data set [4] can be described thus: Inhibition of bovine pancreatic trypsin using D-Phe-Pip-Arg-p-NA as substrate by chromogenic assay. Details: species or system Bos taurus.
Another data set deals with Chymotrypsinogen A (Bos taurus, UniProt P00766). In words: Inhibition of bovine alpha-chymotrypsin using N-succinyl-Ala-Ala-Pro-Phe-p-NA as substrate by chromogenic assay.
Another data set deals with T2, Coagulation factor VII (Homo sapiens, UniProt P08709).
T2 sequence (P08709 whole entry): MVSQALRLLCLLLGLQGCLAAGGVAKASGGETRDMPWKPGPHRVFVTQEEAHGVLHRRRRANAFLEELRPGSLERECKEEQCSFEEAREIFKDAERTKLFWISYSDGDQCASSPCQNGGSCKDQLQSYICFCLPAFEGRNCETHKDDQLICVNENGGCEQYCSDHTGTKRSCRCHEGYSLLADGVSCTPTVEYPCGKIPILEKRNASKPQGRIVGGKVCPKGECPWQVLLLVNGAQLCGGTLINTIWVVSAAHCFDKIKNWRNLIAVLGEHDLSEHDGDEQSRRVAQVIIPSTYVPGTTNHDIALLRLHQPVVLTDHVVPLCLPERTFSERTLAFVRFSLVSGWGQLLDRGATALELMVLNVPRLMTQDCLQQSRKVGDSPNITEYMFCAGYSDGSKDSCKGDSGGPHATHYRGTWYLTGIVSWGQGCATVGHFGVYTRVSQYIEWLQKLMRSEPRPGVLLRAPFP
In words: Inhibition of human recombinant factor 7a using spectrozyme as substrate by chromogenic assay.

Data set [5] has as its target Prothrombin (Homo sapiens, UniProt P00734). The experiment in a line: Inhibition of human thrombin using D-Phe-Pip-Arg-p-NA as substrate by chromogenic assay.
A short description of data set [6]: 1-octanol-water partition coefficient, log D of the compound. Type of data set: physicochemical.
Data set [7] in a line: Dissociation constant, pKa of the compound by potentiometric titration. It is filed as physicochemical.
The target of data set [8] is Prothrombin (Bos taurus, UniProt P00735). In words: Inhibition of bovine thrombin using D-Phe-Pip-Arg-p-NA as substrate by chromogenic assay. As to conditions: read-out: Ki.

Some results are limits rather than exact numbers.

For `O=C(Nc1cccc(OCc2cccc(F)c2)c1)C1CCN(c2ccncc2)CC1`, the Activity was 43% in the data set with Mus musculus [1] and 36% with Mus musculus [2]. In data set [3], the logP – broadly, a log measure of how a compound divides between an organic and an aqueous phase – worked out at 5. For the same molecule, the 2aPTT with Plasma amounted to 6.6 µM. Besides, the Ki (in general, the dissociation constant of the complex between target and ligand, obtained from inhibition or displacement) was 11.3 µM on Neutrophil elastase; greater than 250 µM in data set [4]; 6.6 µM on Chymotrypsinogen A; greater than 250 µM at Coagulation factor VII; 0.016 µM on Prothrombin [5]; 0.006 µM at Prothrombin [8]. For the same molecule, the logD (in general, lipophilicity at a set pH, counting ionised and neutral species) in [6] amounted to 3.14. In [7], the pKa (commonly the pH at which an ionisable group is half protonated) stood at 9.

The values above are taken from ChEMBL document CHEMBL2440069, “Synthesis and biological evaluation of direct thrombin inhibitors bearing 4-(piperidin-1-yl)pyridine at the P1 position with potent anticoagulant activity” (J Med Chem, 2013).
